Source: PubChem BioAssay AID434941 (Johns Hopkins Ion Channel Center, 2010)

Biological target: Short transient receptor potential channel 4 (Mus musculus) (UniProt Q9QUQ5)
Test: TRPC4 positive allosteric modulators, dose response, cell-based, HEK293 TRPC4/mu-opioid, Fluo-4 calcium, EC20 DAMGO (AID 434941);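 further: calcium entry triggered by an EC20 dose of DAMGO at the co-expressed mu-opioid receptor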
Conditions: HEK293 TRPC4/mu-opioid cells, Fluo-4 calcium fluorescence

Chain of Short transient receptor potential channel 4 (Mus musculus) (Q9QUQ5 whole entry, looked up): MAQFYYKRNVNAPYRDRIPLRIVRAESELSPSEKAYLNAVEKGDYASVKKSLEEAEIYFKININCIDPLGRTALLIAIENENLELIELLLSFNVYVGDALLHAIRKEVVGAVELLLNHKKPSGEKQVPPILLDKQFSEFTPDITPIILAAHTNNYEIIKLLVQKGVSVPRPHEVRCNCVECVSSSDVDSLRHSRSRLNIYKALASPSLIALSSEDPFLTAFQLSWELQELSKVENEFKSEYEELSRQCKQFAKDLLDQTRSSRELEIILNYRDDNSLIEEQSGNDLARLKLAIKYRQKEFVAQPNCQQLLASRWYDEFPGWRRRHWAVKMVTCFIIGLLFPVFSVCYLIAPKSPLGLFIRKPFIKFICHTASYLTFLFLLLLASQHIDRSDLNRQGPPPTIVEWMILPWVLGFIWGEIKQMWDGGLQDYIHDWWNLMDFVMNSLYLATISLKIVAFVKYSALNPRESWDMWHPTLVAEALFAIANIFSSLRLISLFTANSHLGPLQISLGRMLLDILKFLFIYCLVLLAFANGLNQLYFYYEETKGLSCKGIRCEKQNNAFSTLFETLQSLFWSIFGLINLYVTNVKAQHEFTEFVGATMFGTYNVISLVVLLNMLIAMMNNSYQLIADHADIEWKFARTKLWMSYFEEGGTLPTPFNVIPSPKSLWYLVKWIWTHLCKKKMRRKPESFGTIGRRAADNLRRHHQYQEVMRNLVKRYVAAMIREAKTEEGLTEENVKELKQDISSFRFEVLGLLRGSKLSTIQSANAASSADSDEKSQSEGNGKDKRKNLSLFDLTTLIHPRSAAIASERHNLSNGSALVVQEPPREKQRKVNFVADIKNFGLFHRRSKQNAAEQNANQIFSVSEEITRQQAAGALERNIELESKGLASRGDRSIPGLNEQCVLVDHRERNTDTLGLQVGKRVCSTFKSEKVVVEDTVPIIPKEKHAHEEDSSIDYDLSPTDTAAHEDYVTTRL

EC50: 5.96 µM
Structure (SMILES): Cn1c(O)c(/C=N/NC(=O)c2cc3ccccc3cc2O)c2ccccc21
